Laboratory results published in article PMC9782510, “Natural Antioxidants, Tyrosinase and Acetylcholinesterase Inhibitors from Cercis glabra Leaves” (Molecules, 2022).

Columns and labels:
[1] = ABTS radical scavenging assay
Experimental: The ABTS radical scavenging assay was modified according to the method with slight modifications. Briefly, the ABTS radical cation was obtained by mixing ABTS diammonium salt stock solution (7.4 mM) with potassium persulfate (2.6 mM) in equal proportion and reacting it at 37 °C in darkness for 12–16 h. Before used, the absorbance of light green ABTS radical test solution at 745 nm was controlled to be 0.70 ± 0.02 by diluting with methanol. Sample solution and ABTS methanol solution (10 µL:190 µL) were added to 96-well microplate, and L-ascorbic acid was the positive control. After incubation at 37 °C for 10 min, the absorbance was tested at 745 nm using a microplate reader. Scavenging rate was calculated according to Equation (1). (1) ABTS radical scavenging activity (%) =AC–AS/AC×100 where AC and AS are the absorbance of the blank control and the compounds to be tested, respectively.

[2] = PTIO radical scavenging assay
Experimental: The PTIO radical scavenging activity was assayed by referring to relevant methods. Briefly, PTIO radical solid (3 mg) was dissolved in 20 mL of methanol, and sample solution and PTIO methanol solution (40 µL:160 µL) were added to a 96-well microplate. The absorbance was determined at 585 nm using a microplate reader after 30 min of incubation and the scavenging rate was calculated on the basis of Equation (2). (2) PTIO radical scavenging activity (%) =[1−AS/AC]×100 where AS is the absorbance of the compounds to be tested and AC is the absorbance of the untreated control.

[3] = DPPH radical scavenging assay
Experimental: The scavenging ability on DPPH radical was conducted based on the method with some modifications. The sample solution and DPPH methanol solution (20 µL:180 µL) were added to a 96-well microplate. L-ascorbic acid was the positive control. The absorbance at 517 nm was measured using a microplate reader after the solution had stood for 30 min at 37 °C under dark conditions. The calculation formula of DPPH radical scavenging activity is consistent with the formula of ABTS radical scavenging activity.

[4] = molecular target: Acetylcholinesterase (AChE) (Electrophorus electricus, UniProt O42275); test: Acetylcholinesterase inhibitory activity (ATCI/DTNB); assay type: biochemical; details: for inhibition at 1000 µg/mL: read-out: Acetylcholinesterase Inhibition (%)
Acetylcholinesterase (AChE), sequence (O42275 24-633): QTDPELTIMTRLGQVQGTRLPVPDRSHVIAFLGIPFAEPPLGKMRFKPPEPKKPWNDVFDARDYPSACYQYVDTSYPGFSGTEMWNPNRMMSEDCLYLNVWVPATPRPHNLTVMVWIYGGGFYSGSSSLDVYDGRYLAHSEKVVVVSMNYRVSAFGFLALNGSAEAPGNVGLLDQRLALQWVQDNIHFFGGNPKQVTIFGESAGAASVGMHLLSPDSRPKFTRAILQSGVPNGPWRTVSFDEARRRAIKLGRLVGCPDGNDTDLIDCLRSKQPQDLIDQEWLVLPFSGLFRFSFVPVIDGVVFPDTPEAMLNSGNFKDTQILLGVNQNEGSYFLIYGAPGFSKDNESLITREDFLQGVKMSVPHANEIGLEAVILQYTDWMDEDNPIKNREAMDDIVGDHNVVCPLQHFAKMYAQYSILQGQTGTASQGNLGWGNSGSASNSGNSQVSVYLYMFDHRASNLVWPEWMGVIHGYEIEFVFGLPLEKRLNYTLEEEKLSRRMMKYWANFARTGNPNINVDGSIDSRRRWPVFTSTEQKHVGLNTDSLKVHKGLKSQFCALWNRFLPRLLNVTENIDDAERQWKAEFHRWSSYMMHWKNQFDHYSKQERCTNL
Experimental: The experiment of acetylcholinesterase inhibition activity was slightly modified according to the literature [55]. Acetylcholinesterase (AChE) and acetylthiocholine iodide (ATCI) were dissolved in 0.1 M phosphate buffer (pH 8.0). 5,5′-Dithiobis-(2-nitrobenzoic acid) (DTNB) was prepared in 10 mL of 0.1 M phosphate buffer (pH 7.0) with a small amount of NaHCO3. A total of 120 µL of 0.1 M phosphate buffer (pH 8.0), 20 µL of 3 mM DTNB solution, 20 µL of sample solution and 20 µL of AChE (0.2 U/mL) were sequentially added to the 96-well microplate, and the mixture reacted for 10 min at 37 °C. The reaction was started by adding 20 µL of 3 mM ATCI and the mixture was incubated at 37 °C for 20 min. Donepezil was chosen as the positive control. […] (4) Acetylcholinesterase inhibition activity (%) =[1−(AS–Aj)/AC]×100 where As and Aj are the absorbance of the compound to be tested and tested compound blanks, respectively, and AC is the absorbance of the untreated control.

[5] = test system: mushroom tyrosinase; test: Mushroom tyrosinase inhibitory activity (L-tyrosine substrate); assay type: biochemical; details: for Tyrosinase Inhibition (%): at initial concentration of 1 mg/mL, means ± SEMs; for IC50: read-out: Tyrosinase inhibition IC50
Experimental: Mushroom tyrosinase (400 U/mL) and L-tyrosine (3 mM) were added separately in 0.05 M potassium phosphate buffer (pH 6.5). A total of 80 µL of potassium phosphate buffer (pH 6.5), 80 µL of L-tyrosine (3 mM) solution, 20 µL of sample solution and 20 µL of mushroom tyrosinase (400 U/mL) were added to a 96-well microplate. The mixture reacted for 1 h at 37 °C. […] The absorbance was measured at 490 nm using a microplate reader and Equation (3) was used to calculate the inhibition rate. (3) Tyrosinase inhibition activity (%) =AC–AS/AC×100
Equation (3) is the absorbance of the test compound and AC is the absorbance of the untreated control.

Compound | IC50 [1] [µM] | IC50 [2] [µM] | IC50 [3] [µM] | inhibition at 1000 µg/mL [4] [%] | Tyrosinase Inhibition (%) [5] [%] | IC50 [5] [µM] | Acetylcholinesterase Inhibition (%) ([4]; at initial concentration of 1 mg/mL, means ± SEMs) | IC50 ([4]; read-out: Acetylcholinesterase inhibition IC50) [µM]
COC(=O)[C@@H](O)[C@H](OC(=O)/C=C/c1ccc(O)cc1)C(=O)OC [Compound 1, (2′S, 3′S)-trans-4-coumaroyltartaric acid dimethyl ester] | > 500 | > 100000 | > 100000 | 38.43 ± 0.2 | 53.13 ± 0.65 | 2630 |  | 
COC(=O)[C@H](O)[C@@H](OC(=O)/C=C/c1ccc(O)cc1)C(=O)O [Compound 2, (2′R, 3′R)-trans-4-coumaroyl-4′-methoxyl-tartaric acid] | > 500 | > 100000 | > 100000 | 39.46 ± 0.25 | 53.54 ± 0.90 | 2590 |  | 
O=c1c(O)c(-c2cc(O)c(O)c(O)c2)oc2cc(O)cc(O)c12 [Compound 3, myricetin] | 94 | 2560 | 870 | 85.27 ± 0.06 | 60.00 ± 1.49 | 1390 |  | 
COc1cc(-c2oc3cc(O)cc(O)c3c(=O)c2O)ccc1O [Compound 4, isorhamnetin] | > 500 | 44300 | 6250 | 68.13 ± 0.24 | 44.17 ± 0.85 | 4690 |  | 
O=c1c(O)c(-c2ccc(O)c(O)c2)oc2cc(O)cc(O)c12 [Compound 5, quercetin] | 97 | 6360 | 590 | 83.65 ± 0.48 | 77.29 ± 1.52 |  |  | 
O=c1c(O)c(-c2ccc(O)cc2)oc2cc(O)cc(O)c12 [Compound 6, kaempferol] | 108 | 14700 | 590 | 82.21 ± 0.09 | 57.50 ± 0.82 | 1690 |  | 
C[C@@H]1O[C@@H](Oc2c(-c3ccc(O)cc3)oc3cc(O)cc(O)c3c2=O)[C@H](O)[C@H](O)[C@H]1O [Compound 7, afzelin] | > 500 | > 100000 | > 100000 |  | 32.71 ± 1.51 | 9240 |  | 
C[C@@H]1O[C@@H](Oc2c(-c3ccc(O)c(O)c3)oc3cc(O)cc(O)c3c2=O)[C@H](O)[C@H](O)[C@H]1O [Compound 8, quercitrin] | > 500 | > 100000 | 6560 | 40.11 ± 0.31 | 39.17 ± 0.86 | 4960 |  | 
C[C@@H]1O[C@@H](Oc2c(-c3cc(O)c(O)c(O)c3)oc3cc(Oc4cc(O)c5c(=O)c(O[C@@H]6O[C@@H](C)[C@H](O)[C@@H](O)[C@H]6O)c(-c6cc(O)c(O)c(O)c6)oc5c4)cc(O)c3c2=O)[C@H](O)[C@H](O)[C@H]1O [Compound 10, myricetin-3-O-rhamnoside-(C7-I-O-C7-II)-myricetin-3-O-rhamnoside] | 45 | 530 | 560 | 61.3 ± 0.38 | 66.04 ± 0.62 | 650 |  | 
CC[C@H](CC[C@@H](C)[C@H]1CC[C@H]2[C@@H]3CC=C4C[C@@H](O[C@@H]5O[C@H](CO)[C@@H](O)[C@H](O)[C@H]5O)CC[C@]4(C)[C@H]3CC[C@]12C)C(C)C [Compound 11] | > 500 | > 100000 | > 100000 | 40.8 ± 0.41 | 29.79 ± 0.88 | 8840 |  | 
CC(=O)CCc1ccc(O[C@@H]2O[C@H](CO)[C@@H](O)[C@H](O)[C@H]2O)cc1 [Compound 12, 4-(4′-Hydroxyphenyl)-2-butanone-4′-O-β-D-glucopyranoside] | > 500 | > 100000 | 34900 | 39.8 ± 0.53 | 35.63 ± 1.01 | 7470 |  | 
O=C(O)c1cc(O)c(O)c(O)c1 [Compound 13, gallic acid] | 179 | > 100000 | 770 | 71.74 ± 0.4 | 80.00 ± 0.78 | 590 |  | 
COC(=O)C[C@H]1CCC(=O)[C@H]1C/C=C\CCO[C@@H]1O[C@H](CO)[C@@H](O)[C@H](O)[C@H]1O [Compound 14, methyl-β-D-glucopyranosyl tuberonate] | > 500 | > 100000 | > 100000 | 47.18 ± 0.16 | 37.71 ± 0.56 |  |  | 
O=C1c2c(O[C@@H]3O[C@H](CO)[C@@H](O)[C@H](O)[C@H]3O)cc(O)cc2OC1(O)Cc1ccc(O)cc1 (stereo partly drawn) [Compound 15, hovetrichoside C] | > 500 | > 100000 | > 100000 | 39.91 ± 0.36 | 42.08 ± 0.54 | 4040 |  | 
O=C1O[C@H]([C@@H](O)CO)C(O)=C1O [L-ascorbic acid, reference compound] | 156 | 1610 | 440 |  |  |  |  | 
kaempferol-3-O-rutinoside [Compound 9] | > 500 | 27600 | > 100000 |  | 23.54 ± 1.04 |  | 39.90 ± 0.33 | > 1000
